Legend:
[1] = target: T1, Glutathione S-transferase P (Homo sapiens, UniProt P09211); assay: Prodrug activation in human HCT116 cells assessed as GST-Pi-mediated NO release at 5 uM after 24 hrs by nitrate reductase assay; format: cell-based
[2] = tested on: HCT-116; assay: Growth inhibition of human HCT116 cells at 5 uM after 24 hrs by MTT assay relative to control; format: functional; conditions: HCT-116, 24 h, read-out: GI
[3] = tested on: HCT-116; assay: Growth inhibition of human HCT116 cells at 5 uM after 24 hrs in presence of NO scavenger carboxy-PTIO by MTT assay relative to control; format: functional; conditions: HCT-116, 24 h, read-out: GI
[4] = Selectivity ratio of IC50 for human U2OS cells to IC50 for human MDA-MB-231 cells; format: functional
[5] = Glutathione reactivity in pH 7.4 PBS buffer assessed as parent compound remaining at 0.1 mM after 1 hr in presence of 2 mM GSH by HPLC analysis; format: physicochemical; conditions: PBS buffer with 2 mM glutathione (GSH), read-out: Stability
[6] = Selectivity ratio of IC50 for human MCF10A cells to IC50 for human MDA-MB-231 cells; format: toxicity; conditions: MCF10A cells versus MDA-MB-231 cells, read-out: Ratio IC50
[7] = Selectivity ratio of IC50 for human A549 cells to IC50 for human MDA-MB-231 cells; format: functional
[8] = tested on: HCT-116; assay: Antiproliferative activity against human HCT116 cells after 48 hrs by MTT assay relative to control; format: functional, cell-based; conditions: HCT-116, 48 h
[9] = target: T1, Glutathione S-transferase P; assay: Prodrug activation in human HCT116 cells assessed as GST-Pi-mediated NO release at 5 uM after 24 hrs in presence of NO scavenger carboxy-PTIO by nitrate reductase assay; format: cell-based
[10] = Cytotoxicity against ADR-sensitive human MCF7 cells assessed as inhibition of cell viability at 10 uM after 48 hrs by MTT assay relative to control; format: cell-based; conditions: read-out: INH
[11] = tested on: HCT-116; assay: Cytotoxicity against human HCT116 cells overexpressing GST-Pi assessed as inhibition of cell viability at 10 uM after 48 hrs by MTT assay relative to control; format: functional; conditions: HCT-116, 48 h
[12] = Selectivity ratio of IC50 for human HCT116 cells to IC50 for human MDA-MB-231 cells; format: functional
[13] = species on record: Homo sapiens; assay: Inhibition of MDR in human MCF7/ADR cells assessed as potentiation of adriamycin-induced antiproliferative activity by measuring fold reduction in adriamycin IC50 at 10 uM after 48 hrs by MTT assay; format: cell-based
[14] = tested on: MDA-MB-231; assay: Antiproliferative activity against human MDA-MB-231 cells after 48 hrs by MTT assay relative to control; format: functional, cell-based; conditions: MDA-MB-231, 48 h
[15] = tested on: MCF-10A; assay: Antiproliferative activity against human MCF10A cells after 48 hrs by MTT assay relative to control; format: cell-based
[16] = tested on: MCF7; assay: Cytotoxicity against ADR-sensitive human MCF7 cells assessed as inhibition of cell viability after 48 hrs by MTT assay; format: cell-based; conditions: MCF7, 48 h
[17] = tested on: U2OS; assay: Antiproliferative activity against human U2OS cells after 48 hrs by MTT assay relative to control; format: functional, cell-based
[18] = target: T1, Glutathione S-transferase P; assay: Prodrug activation in human HCT116 cells assessed as GST-Pi-mediated NO release at 5 uM after 24 hrs in presence of GST-Pi inhibitor etacrynic acid by nitrate reductase assay; format: cell-based
[19] = tested on: A549; assay: Antiproliferative activity against human A549 cells after 48 hrs by MTT assay relative to control; format: functional, cell-based; conditions: A549, 48 h
[20] = tested on: HCT-116; assay: Growth inhibition of human HCT116 cells at 5 uM after 24 hrs in presence of GST-Pi inhibitor etacrynic acid by MTT assay relative to control; format: functional; conditions: HCT-116, 24 h, read-out: GI
[21] = target: T1, Glutathione S-transferase P; assay: Prodrug activation in human HCT116 cells assessed as GST-Pi-mediated NO release at 5 uM by nitrate reductase assay; format: cell-based

T1 sequence (P09211 whole entry): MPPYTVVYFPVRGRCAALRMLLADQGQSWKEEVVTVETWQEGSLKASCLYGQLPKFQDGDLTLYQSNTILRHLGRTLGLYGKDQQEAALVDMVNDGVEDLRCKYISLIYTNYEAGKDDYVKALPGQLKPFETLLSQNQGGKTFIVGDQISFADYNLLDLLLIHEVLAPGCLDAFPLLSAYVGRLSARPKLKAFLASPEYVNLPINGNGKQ

SMILES	Drug metabolism [1]	inhibition of growth at 5 µM [2]	Ratio IC50 [4]	selectivity ratio [6]	Ratio IC50 [7]	IC50 [8]	Drug metabolism [9]	cytotoxicity at 48 h, 10 µM [10]	inhibition at 10 µM [11]	Ratio IC50 [12]	fold change (FC) [13]	IC50 [14]	IC50 [15]	IC50 [16]	IC50 [17]	Drug metabolism [18]	IC50 [19]	Drug metabolism [21]	also measured
COc1cc(C2CC(c3cccc(Oc4cc(O/N=[N+](\[O-])N5CCCCC5)c([N+](=O)[O-])cc4[N+](=O)[O-])c3)=NN2C(C)=O)cc(OC)c1OC (stereo not given)	Metabolite_Detected	74.9%	8.1	11.2	1.2	1.06 µM	Metabolite_Notdetected	26.4%	80.8%	1.1	75.3	0.94 µM	10.5 µM	17.7 µM	7.64 µM	Metabolite_Notdetected	1.15 µM		inhibition of growth at 5 µM [3]: 7.1%; remaining at 1 h, 100 µM [5]: 80%
COc1ccc(C2CC(c3cccc(Oc4cc(O/N=[N+](\[O-])N5CCCCC5)c([N+](=O)[O-])cc4[N+](=O)[O-])c3)=NN2C(C)=O)cc1 (stereo not given)		67.9%	1.7	8.2	1.5	4.14 µM	Metabolite_Notdetected	15.1%	80.4%	0.7	61.9	5.68 µM	46.9 µM	27.6 µM	7.49 µM	Metabolite_Notdetected	4.7 µM		inhibition of growth at 5 µM [20]: 14.8%
CCCCOc1ccc(C2CC(c3cccc(Oc4cc(O/N=[N+](\[O-])N5CCOCC5)c([N+](=O)[O-])cc4[N+](=O)[O-])c3)=NN2C(C)=O)cc1OC (stereo not given)	Metabolite_Detected		0.5	3.4	0.3	1.86 µM	Metabolite_Notdetected	23.6%	75.7%	0.4	63	4.4 µM	15.2 µM	19.2 µM	2.19 µM	Metabolite_Notdetected	1.46 µM	Dose-dependent effect	
COc1ccc(C2CC(c3cccc(Oc4cc(O/N=[N+](\[O-])N5CCOCC5)c([N+](=O)[O-])cc4[N+](=O)[O-])c3)=NN2C(C)=O)cc1OC (stereo not given)	Metabolite_Detected		3.7	15.3	2.3	1.27 µM	Metabolite_Notdetected	13%	81.2%	1.9	14.3	0.66 µM	10.1 µM	22.7 µM	2.46 µM	Metabolite_Notdetected	1.54 µM	Dose-dependent effect	
